Tested on: P. falciparum isolate 6320
Assay: 3-day SYBR Green I GIA, field isolate 6320
Type: cell-based
Conditions: Plasmodium falciparum; artemisinin- and piperaquine-resistant isolate; read-out: Resistant isolates EC50, 6320
Protocol: A 3-day SYBR Green I inhibition EC50 assay was performed as described previously. Briefly, highly synchronized ring-stage parasites by 5% sorbitol (1% parasitemia and 2% hematocrit) were incubated in a 96-well plate with compounds in a total volume of 200 μL. […] The parasites were cultured for 72 h before SYBR Green I staining as described above. The EC50 was calculated by GraphPad Prism. DHA was used as a positive control, and the final concentration of DMSO was 1%.

Which EC50 does the source give for `Cl.Cn1cc(CN2CCC3(CCN(c4ncc(C(=O)NO)cn4)C3)C2)c2cc(C#N)ccc21` (stereo not shown) [JX21108] here?
Its EC50 is 2.6 ± 0.2 nM.
